Patent publication US11376264B2, “Use of bromodomain-containing protein 9 antagonists in combination with vitamin D receptor agonists in diabetes treatment” (Salk Institute for Biological Studies, priority 2017, dated 2022)

Experiments:
human islets [1] = assay: Human islets under cytokine stress, transmission electron microscopy; format: cell-based; details: 24 hours
Protocol: (§1) Mouse pancreatic islets were isolated as previously described (Yoshihara et al., 2010, Nat. Commun 1:127) with slight modification. Briefly, 0.5 mg/ml collagenase P (Roche REF 1213873001, diluted in HBSS buffer, GIBCO, 14170-112) was injected through the common bile duct, and the perfused pancreas dissected and incubated at 37° C. for 21 min. Digested exocrine cells and intact islets were separated via centrifugation (900×g for 15 min) over Histopaque-1077 (Sigma, H8889), and intact islets were manually selected. Human islets were provided by the Integrated Islets Distribution Program (see details below).
Islets in suspension were pelleted in 2% low melting point agarose and subsequently fixed in 2.5% glutaraldehyde with 2% paraformaldehyde in 0.15M cacodylate buffer containing 2 mM calcium chloride, pH 7.4, for one hour at 4° C. The pellet was trimmed down to contain the minimal amount of agarose possible, washed in buffer, and secondarily fixed in 1% osmium tetroxide/0.3% potassium ferrocyanide in buffer. Subsequently, the pellet was washed in water and en bloc stained with 2% uranyl acetate followed by a graded dehydration in ethanol (35%, 50%, 70%, 90%, 100%, 100%). […]

human islets [2] = assay: Long term ex vivo human islet cultures; format: cell-based; details: for insulin secretion: 1 week; for islet survival (cell numbers): 4 weeks
Protocol: as §1

h-IAPP mouse islets = assay: Islets from aged h-IAPP transgenic mice treated ex vivo (qPCR); format: cell-based; details: 72 hr ex vivo, 15 month old mice
Protocol: as §1, with “Samples were run in triplicate and expression was normalized to the levels of the housekeeping controls Rplp0 (36b4) for human and mouse. Samples were analyzed by qPCR, using SYBR Green dye (Bio-rad). Statistical comparisons were made using Student's t test. Error bars are mean±SEM. Primers used are shown below: Mouse” for “Mouse”

Nfkbia (IκBα) = assay: Nfkbia expression in IL1β-stressed INS1 cells (qPCR); format: cell-based, rat
Protocol: Samples were run in triplicate and expression was normalized to the levels of the housekeeping controls Rplp0 (36b4) for human and mouse. Samples were analyzed by qPCR, using SYBR Green dye (Bio-rad). Statistical comparisons were made using Student's t test. Error bars are mean±SEM. Primers used are shown below: INS1 cells were cultured at 37° C. in 5% C02 in air in RPMI-1640 (Sigma Aldrich) supplemented with 10% (v/v) fetal bovine serum, 1% (v/v) Antibiotic-Antimycotic (Gibco) 10 mM HEPES, 2 mM glutamax, 1 mM sodium pyruvate, and 50 μM β-mercaptoethanol (RPMI for INS1 medium). INS1 cells were transfected with Lipofectamine RNAiMAX (Invitrogen) for 24 hr, […] (VDR: L-097753-02-0005, PCAF: L-085879-02-0005, BAF180: L-088113-02-0005, non-targeting pool: D-001810-10-05).

## C=C1/C(=C\C=C2/CCC[C@]3(C)[C@@H]([C@H](C)/C=C/[C@@H](O)C4CC4)CC[C@@H]23)C[C@@H](O)C[C@@H]1O [Cal, calcipotriol]
Human islets [1]
  cytokine-induced morphological degeneration (insulin granules, ER): partially rescues the morphological degeneration
Human islets [2]
  insulin secretion: increased
  islet survival (cell numbers): increased
Human islets [2]; listed as Calcipotriol
  insulin secretion: Increases
  islet survival (cell numbers): Increases
h-IAPP mouse islets
  inflammatory and stress markers: reduced
Nfkbia (IκBα); 30 minutes IL1β exposure
  Nfkbia expression: increased
Nfkbia (IκBα); IL1β stress, after 24 hrs
  Nfkbia expression: not sufficient to induce a significant increase
